Experimental data as given in patent US11058665B2, “Methods for treating brain metastasis” (MEMORIAL SLOAN-KETTERING CANCER CENTER, priority 2014, dated 2021).
Structures can show the parent of a compound that is named as a salt.

What was measured:
[1] = system: MDA231-BrM2 cells (brain metastatic lesions); assay: Established brain metastasis treatment, starting 14 days after inoculation with MDA231-BrM2 cells, BLI; type: in vivo, mice; settings: for progression of brain metastatic lesions (BLI): treatment from day 14, 35-day end point, Tonabersat 10 mg/kg, meclofenamate 20 mg/kg, carboplatin 50 mg/kg/5 days, FIG. 5h,i
Method: (§1) All experiments using animals were done in accordance to protocols approved by the MSKCC Institutional Animal Care and Use Committee. Athymic NCR nu/nu mice (NCI-Frederick), Cr:NIH bg-nu-xid mice (NCI-Frederick) and B6129SF1/J mice (Jackson Laboratory) were use at 5-6 weeks of age. For long-term brain metastasis assays we followed previously described procedures (Bos, Nguyen et al. 2010). In brief, 10^4 MDA231-BrM2 cells, 5×10^4 H2030-BrM3 cells, or 10^5 393N1 cells suspended in 100 μl of PBS were injected into the left cardiac ventricle. At the experimental endpoint, anesthetized mice (ketamine 100 mg/kg, xylazine 10 mg/kg) were injected retro-orbitally with D-luciferin (150 mg/kg), and brain colonization was quantified by ex vivo Bio-luminescent imaging (BLI). For short-term (7-day and 14-day) brain metastasis experiments, we injected 5×10^5 cells. TRITC dextran (70 KD) (Life Technologies) was intravenously injected to stain vascular structures. For inducible knockdown experiments, mice were given doxycycline hyclate (Sigma-Aldrich) in the drinking water (2 mg/mL) and the diet (Harlan) 14 days after injection of cancer cells. For lung colonization assays, 2×10^5 MDA231-BrM2 cells in 100 piL PBS were injected into the lateral tail vein. For orthotopic tumour implantation, 5×10^3 cells in 50 piL of 1:1 mix of PBS/growth factor reduced matrigel (BD Biosciences) were injected into the 4th right mammary fat pad of female mice. For drug treatment experiments, mice were intraperitoneally injected with carboplatin (Hospira) (50 mg/kg/5 days), Tonabersat (MedChem Express) (10 mg/kg/day), or meclofenamic acid sodium salt (Sigma-Aldrich) (20 mg/kg/day). Vehicle (10% DMSO in Polyethylene glycol 400) was used in control mice. BLI was performed using an IVIS Spectrum Xenogen instrument (Caliper Life Sciences) and analysed using Living Image software, v. 2.50. For brain metastasis assays, 8-10 mice were used in each group. For drug treatment experiments, mice were inoculated with cancer cells and randomly assigned to treatment groups. Gap junction modulators and chemotherapeutic agents were blindly administered in the MSKCC Antitumour Assessment Core.

[2] = after systemic administration; cited from earlier work
[3] = system: brain metastases from breast or lung cancer; settings: cited from earlier work
[4] = system: MDA231-BrM2 cells as orthotopic tumours; assay: Orthotopic tumour implantation in mammary fat pad, BLI; type: in vivo, mice; settings: FIG. 15c, same treatment
Method: as §1, with “For orthotopic tumour implantation, 5×10^3 cells in 50 piL of 1:1 mix of PBS/growth factor reduced matrigel (BD Biosciences) were injected into the 4th right mammary fat pad of female mice. For drug treatment experiments, mice were intraperitoneally injected with carboplatin (Hospira) (50 mg/kg/5 days), Tonabersat (MedChem Express) (10 mg/kg/day), or meclofenamic acid sodium salt (Sigma-Aldrich) (20 mg/kg/day). Vehicle (10% DMSO in Polyethylene glycol 400) was used in control mice.” left out, “2.50. For brain metastasis assays, 8-10 mice were used in each group. For drug treatment experiments, mice were inoculated with cancer cells and randomly assigned to treatment groups. Gap junction modulators and chemotherapeutic agents were blindly administered in the MSKCC Antitumour Assessment Core.” left out

[5] = system: trigeminal ganglion neuronal-satellite cell signaling; settings: animal models; cited from earlier work
[6] = in vivo; cited from earlier work
[7] = system: MDA231-BrM2 cells, H2030-BrM3 cells, KRas/p53-393N1 cells (brain metastases); assay: Brain metastasis assay, drug given daily from day 1 after arterial inoculation of cancer cells, BLI; type: in vivo; settings: treated from day 1; MDA231-BrM2 or H2030-BrM3 in immunodeficient mice, KRas/p53-393N1 in immunocompetent mice; Tonabersat 10 mg/kg/day, meclofenamate 20 mg/kg/day i.p.
Method: as §1, with “For orthotopic tumour implantation, 5×10^3 cells in 50 piL of 1:1 mix of PBS/growth factor reduced matrigel (BD Biosciences) were injected into the 4th right mammary fat pad of female mice. For drug treatment experiments, mice were intraperitoneally injected with carboplatin (Hospira) (50 mg/kg/5 days), Tonabersat (MedChem Express) (10 mg/kg/day), or meclofenamic acid sodium salt (Sigma-Aldrich) (20 mg/kg/day). Vehicle (10% DMSO in Polyethylene glycol 400) was used in control mice.” left out, “2.50. For brain metastasis assays, 8-10 mice were used in each group. For drug treatment experiments, mice were inoculated with cancer cells and randomly assigned to treatment groups. Gap junction modulators and chemotherapeutic agents were blindly administered in the MSKCC Antitumour Assessment Core.” left out

[8] = system: unique stereoselective binding site in astrocytes; settings: cited from earlier work
[9] = system: MDA231-BrM2 cells as lung metastatic lesions; assay: Lung colonization assay, MDA231-BrM2 cells, BLI; type: in vivo, mice; settings: FIG. 15d; same treatment from day 1
Method: as §1, with “For orthotopic tumour implantation, 5×10^3 cells in 50 piL of 1:1 mix of PBS/growth factor reduced matrigel (BD Biosciences) were injected into the 4th right mammary fat pad of female mice. For drug treatment experiments, mice were intraperitoneally injected with carboplatin (Hospira) (50 mg/kg/5 days), Tonabersat (MedChem Express) (10 mg/kg/day), or meclofenamic acid sodium salt (Sigma-Aldrich) (20 mg/kg/day). Vehicle (10% DMSO in Polyethylene glycol 400) was used in control mice.” left out, “2.50. For brain metastasis assays, 8-10 mice were used in each group. For drug treatment experiments, mice were inoculated with cancer cells and randomly assigned to treatment groups. Gap junction modulators and chemotherapeutic agents were blindly administered in the MSKCC Antitumour Assessment Core.” left out

[10] = system: cortical spreading depression; settings: gap-junction-mediated pathophysiological process; cited from earlier work
[11] = system: release of IFNα and TNFα in co-cultures of astrocytes and cancer cells; assay: ELISA of IFNα and TNFα in conditioned media from MDA231-BrM2 cell and astrocyte co-cultures; type: cell-based, human; settings: FIG. 5b
Method: Cancer Cell and Astrocyte Co-Culture Experiments.
Astrocytes and cancer cells were mixed at ratio of 1:1. For apoptosis assays, overnight co-cultures were treated with 500 ng/ml sFasL (Peprotech) in serum free media, 500 nM carboplatin (Sigma-Aldrich) or 25 nM Paclitaxel (Sigma-Aldrich) for 24 h. Single cell suspensions were stained with APC-conjugated cleaved caspase 3 antibody (Cell Signaling), apoptotic GFP+ cancer cells were detected by flow cytometery. For translating ribosome affinity purification (TRAP), EGFP-L10a expressing cancer cells were co-cultured with astrocytes for 24 h. Following previously published protocols, (Heiman, Schaefer et al. 2008, Zhang, Jin et al. 2013) mRNA purified from cancer cells were was used for library construction with TruSeq RNA Sample Prep Kit v2 (Illumina) following the manufacturer's instructions. Samples were barcoded and run on a Hiseq 2000 platform in a 50 bp/50 bp paired-end run, using the TruSeq SBS Kit v3 (Illumina). An average of 50 million paired reads were generated per sample. For conditioned media analysis, media were collected after 24 h, and cytokines in the conditioned media were either identified using Human Cytokine Array (R&D systems) or measured by IFNα or TNFα ELISA kits (R&D systems). To detect the activity of IFNα or TNFα in the collected conditioned media, cancer cells were treated with the collected conditioned media for 2 h and phosphorylation status of STAT1 or NF-κB p65 was determined by western blotting. For cGAMP and […] activation experiments, cancer cells and astrocytes were co-cultured for 18 h. The phosphorylation status of TBK1, IRF3 was determined by western immunoblotting. Nuclear translocation of IRF3 was determined by immunofluorescence staining with Zeiss LSM 5 Live confocal microscopy. cGAMP levels were determined by LC-MS/MS.

[12] = system: gap junction dye transfer from astrocytes to MDA231-BrM2 cells; assay: Dye transfer assay (calcein) from astrocytes to cancer cells, flow cytometry; type: cell-based, human; settings: for dye transfer from astrocytes to cancer cells: MDA231-BrM2 cells, flow cytometry, FIG. 5a
Method: Dye Transfer and EdU Transfer Assays.
Monolayers of cancer cells or astrocytes were labeled with 2.5 gig/ml calcein Red-Orange AM dye (Life Technologies) at 37° C. for 30 min. Single cell suspensions were mixed at a ratio of 2:1 labeled:unlabeled cells for 6 h. Certain experiments used a mix of three cell populations, MDA231-BrM2 (GFP+), HBMEC (pre-labeled with Cell Proliferating Dye Fluor@670, eBioscience), and unlabeled astrocytes. Dye transfer was visualized by Zeiss LSM 5 Live confocal microscopy (20-min time-lapse) or quantified by FACSCalibur flow cytometry (BD Biosciences) at different time points. For DNA transfer assays, cancer cells were labeled overnight with EdU (10 μM, Molecular Probes) and maintained in culture for additional 3 days. Single cell suspensions of labeled cancer cells and astrocytes were mixed at 2:1 ratio for 6 h. EdU transfer was visualized using Zeiss LSM 5 Live confocal microscopy or quantified by FACSCalibur flow cytometry (BD Biosciences) following the manufacturer's instructions (Molecular Probes).

[13] = cited from earlier work
Cx43 gap junction = settings: cited from earlier work
epileptogenesis = settings: in vivo; cited from earlier work

| SMILES | brain metastasis (BLI) in inducible shRNA experiment ([1]; carboplatin alone 50 mg/kg/5 days starting on day 14, compared with depletion of Cx43 or PCDH7, FIG. 5f,g) | progression of brain metastatic lesions (BLI) [1] | passage of the BBB [2] | overall survival in patients with brain metastases [3] | growth of MDA231-BrM2 cells as orthotopic tumours [4] | trigeminal ganglion neuronal-satellite cell signaling [5] | oral bioavailability [6] | emergence of brain metastases (BLI) [7] | binding to site in astrocytes [8] | growth of MDA231-BrM2 cells as lung metastatic lesions [9] | cortical spreading depression [10] | release of IFNα in co-cultures [11] | release of TNFα in co-cultures [11] | dye transfer from astrocytes to cancer cells [12] | tolerability and safety in patients with migraine ([13]; patients with migraine) | dye transfer from astrocytes to MDA231-BrM2 cells, compared with Cx43 depletion ([12]; Carbenoxolone 50 uM, FIG. 8b) | Cx43 gap junction gating (Cx43 gap junction) | epileptogenesis in animal models (epileptogenesis) | systemic tolerability ([13]; in vivo) |
| --- | --- | --- | --- | --- | --- | --- | --- | --- | --- | --- | --- | --- | --- | --- | --- | --- | --- | --- | --- |
| N.N.O=C([O-])C1(C(=O)[O-])CCC1.[Pt+2] [carboplatin] | inhibited brain metastasis to a similar extent as depletion of Cx43 or PCDH7 | minimally inhibited brain metastasis growth | crosses the BBB | modest improvement in overall survival | – | – | – | – | – | – | – | – | – | – | – | – | – | – | – |
| CC(=O)c1ccc2c(c1)[C@H](NC(=O)c1ccc(F)c(Cl)c1)[C@H](O)C(C)(C)O2 [Tonabersat] | – | significantly inhibited progression of metastatic lesions | – | – | did not restrict growth | inhibits | orally bioavailable | prevented the emergence of brain metastases | binds to a unique stereoselective binding site in astrocytes | did not restrict growth | inhibits | inhibited | inhibited | inhibited dye transfer | systemically well-tolerated and safe | – | – | – | – |
| CC1(C)[C@@H](OC(=O)CCC(=O)O)CC[C@]2(C)[C@H]3C(=O)C=C4[C@@H]5C[C@@](C)(C(=O)O)CC[C@]5(C)CC[C@@]4(C)[C@]3(C)CC[C@@H]12 [carbenoloxone, carbenoxolone] | – | – | – | – | – | – | – | – | – | – | – | – | – | – | – | extent of dye-transfer inhibition after Cx43 depletion was comparable | – | – | – |
| Cc1ccc(Cl)c(Nc2ccccc2C(=O)O)c1Cl [meclofenamate, meclofenamic acid sodium salt] | – | significantly inhibited progression of metastatic lesions | passes the BBB | – | did not restrict growth | – | orally bioavailable | prevented the emergence of brain metastases | – | did not restrict growth | – | inhibited | inhibited | inhibited dye transfer | – | – | inhibits Cx43 gap junction gating | inhibits epileptogenesis | well tolerated systemically |
